Results published in paper PMC11726677, “Eradication of Therapy-Resistant Cancer Stem Cells by Novel Telmisartan Derivatives” (Journal of Medicinal Chemistry, 2024).
Where “and” joins values, the source holds several entries; their conditions need not be identical. Equal entries are not always repeated.

Columns and labels:
K562-R cells [1] = test: Chemosensitizing: metabolic activity of K562-R cells cotreated with imatinib (modified MTT assay); format: cell-based, human; details: 72 h
Protocol: (§1) The potential reduction in cell viability was determined using the modified MTT assay.
conc. 10 to 0.5 μM) over 72 h (Figure 3D).
(§2) COS-7 (2 × 10^3 cells per well), IGROV-1 SP (2.5 × 10^3 cells per well), A2780 V SP (1.5 × 10^3 cells per well), PC3-DR (4 × 10^3 cells per well), and DU145-DR (3 × 10^3 cells per well) cells were seeded in 96-well plates in triplicates and after 24 h, the compounds were added at the respective concentrations. K562-R and K562 cells (2 × 10^4 cells per well), were treated with the compounds 2 h after seeding. […] A modified MTT colorimetric assay (EZ4U kit, Biomedica) was used to determine the metabolic activity of the tested cells, according to the manufacturer’s instructions. Absorbance was measured and the optical density of the respective FCS-containing medium and of the substrate was subtracted to exclude nonspecific staining. Metabolic activity in the absence of the compounds (CTR, DMSO) was set to 100% as reference.

ABCB1 [2] = test: Jess Simple Western immunoassay of ABCB1 expression in K562-R cells; format: cell-based, human; details: 4 μM, 72 h
Protocol: (§3) Protein extracts were prepared as previously described.[44] Protein expression was determined using the capillary-based Jess Simple Western detection system (ProteinSimple, BioTechne) according to the manufacturer’s instructions at default settings. […] Horseradish peroxidase (HRP)-conjugated secondary antirabbit antibody, which was included in the Jess Detection Module kit, was used. Data analysis was conducted using Compass for Simple Western 4.0 software (ProteinSimple, BioTechne).

STAT5 [3] = test: Jess Simple Western immunoassay of STAT5/pSTAT5 in K562-R cells; format: cell-based, human; details: 4 μM + imatinib 1 μM, 6 h
Protocol: In the next step, the effects of the compounds (4 μM) on STAT5 in K562-R cells were examined.
as §3

[4] = tested on: A2780 V SP cells (ABCB1+); test: SP analysis (DCV, flow cytometry) in A2780 V SP cells; format: cell-based, human; details: 10 μM
Source text: (§4) In recent studies, we described the side population (SP) phenotype as a marker that defines a heterogeneous cellular compartment with stem cell-characteristics in various cancer cell lines derived from solid tumors, such as ovarian cancer, breast cancer, and lung cancer.[26],[27]

[5] = tested on: IGROV-1 SP cells (ABCB1+); test: SP analysis (DCV, flow cytometry) in IGROV-1 SP cells; format: cell-based, human; details: 10 μM
Source text: as §4

PC3-DR cells (ABCB1+) = test: SP analysis (DCV, flow cytometry) in PC3-DR cells; format: cell-based, human; details: 10 μM
Source text: as §4

DU145-DR cells (ABCB1+) = test: SP analysis (DCV, flow cytometry) in DU145-DR cells; format: cell-based, human; details: 10 μM
Source text: as §4

MCF7 cells (ABCG2+) = test: SP analysis (DCV, flow cytometry) in MCF7 cells; format: cell-based, human; details: MCF7, 10 μM
Source text: as §4

A549 cells (ABCC1+) = test: SP analysis (DCV, flow cytometry) in A549 cells; format: cell-based, human; details: A549, 10 μM
Source text: as §4

STAT5 [6] = test: Jess Simple Western immunoassay of STAT5/pSTAT5 in A2780 V SP cells; format: cell-based, human; details: 10 μM, 72 h
Protocol: (§5) The impact of STAT5 activation on the mode of action was investigated in selected solid tumor cell lines as well.
as §3

STAT5 [7] = test: Jess Simple Western immunoassay of STAT5/pSTAT5 in IGROV-1 SP cells; format: cell-based, human; details: 10 μM, 72 h; for STAT5 protein expression: IGROV1 SP
Protocol: as §5, §3

STAT5 [8] = test: Jess Simple Western immunoassay of STAT5/pSTAT5 in MCF7 cells; format: cell-based, human; details: MCF7, 10 μM, 72 h
Protocol: as §5, §3

STAT5 [9] = test: Jess Simple Western immunoassay of STAT5/pSTAT5 in A549 cells; format: cell-based, human; details: A549, 10 μM, 72 h
Protocol: as §5, §3

A2780 V SP cells = test: Chemosensitizing to paclitaxel: metabolic activity of A2780 V SP cells (MTT); format: cell-based, human; details: compound 10 μM + PTX 10 nM, 72 h
Protocol: (§6) The chemosensitizing efficacy was investigated in the ovarian and prostate cancer cell lines using the above-described metabolic activity assay. Paclitaxel (PTX) served as a reference (CTR) in A2780 V SP and IGROV-1 SP cells and docetaxel (DTX) in PC3-DR and D145-DR cells.
as §2

IGROV-1 SP cells = test: Chemosensitizing to paclitaxel: metabolic activity of IGROV-1 SP cells (MTT); format: cell-based, human; details: compound 10 μM + PTX 10 nM, 72 h
Protocol: as §6, §2

[10] = biological target: T1, ABCB1 transporter in K562-R cells (Homo sapiens, UniProt P08183); test: Side population (SP) analysis, DCV staining, flow cytometry; details: 10 μM
T1 sequence (P08183 whole entry): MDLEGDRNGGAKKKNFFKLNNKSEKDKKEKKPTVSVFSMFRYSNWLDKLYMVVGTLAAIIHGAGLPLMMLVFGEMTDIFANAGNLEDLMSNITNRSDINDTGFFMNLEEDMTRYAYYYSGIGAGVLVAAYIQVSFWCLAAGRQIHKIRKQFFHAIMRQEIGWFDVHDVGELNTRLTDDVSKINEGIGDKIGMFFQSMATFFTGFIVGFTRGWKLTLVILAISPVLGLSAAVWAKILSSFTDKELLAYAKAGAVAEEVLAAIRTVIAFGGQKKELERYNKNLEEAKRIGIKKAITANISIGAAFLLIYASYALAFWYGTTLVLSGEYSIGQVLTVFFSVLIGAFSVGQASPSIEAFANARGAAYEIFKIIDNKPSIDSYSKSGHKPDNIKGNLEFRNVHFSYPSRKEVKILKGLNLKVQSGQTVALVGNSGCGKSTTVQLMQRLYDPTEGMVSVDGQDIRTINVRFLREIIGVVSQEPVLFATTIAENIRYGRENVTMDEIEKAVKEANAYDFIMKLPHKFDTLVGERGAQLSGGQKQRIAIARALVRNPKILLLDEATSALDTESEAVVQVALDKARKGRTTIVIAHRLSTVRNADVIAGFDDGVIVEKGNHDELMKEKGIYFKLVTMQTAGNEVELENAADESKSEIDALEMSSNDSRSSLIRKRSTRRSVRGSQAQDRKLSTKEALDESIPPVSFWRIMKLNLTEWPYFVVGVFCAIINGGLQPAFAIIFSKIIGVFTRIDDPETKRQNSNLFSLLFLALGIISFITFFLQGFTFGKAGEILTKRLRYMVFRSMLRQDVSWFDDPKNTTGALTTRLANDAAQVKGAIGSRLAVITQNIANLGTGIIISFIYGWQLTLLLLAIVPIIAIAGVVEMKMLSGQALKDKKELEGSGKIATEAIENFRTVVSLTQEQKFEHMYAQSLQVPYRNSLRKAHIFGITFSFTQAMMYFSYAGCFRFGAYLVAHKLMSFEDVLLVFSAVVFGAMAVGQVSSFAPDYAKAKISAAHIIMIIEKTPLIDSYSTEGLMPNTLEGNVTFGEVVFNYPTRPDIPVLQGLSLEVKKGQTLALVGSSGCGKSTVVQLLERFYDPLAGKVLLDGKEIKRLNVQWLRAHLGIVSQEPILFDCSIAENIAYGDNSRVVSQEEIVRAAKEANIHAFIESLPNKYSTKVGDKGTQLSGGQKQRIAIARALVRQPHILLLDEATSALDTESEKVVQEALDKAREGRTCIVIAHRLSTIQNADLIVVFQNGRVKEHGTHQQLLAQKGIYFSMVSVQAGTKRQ
Protocol: (§7) SP analyses were performed as previously described[45] on a LSRFortessa flow cytometer (BD Biosciences, Vienna, Austria). Briefly, 1 × 10^6 cells/mL were stained with 10 μM Vybrant DyeCycleTM Violet (DCV; Molecular Probes, Eugene, OR) in the presence or absence of the investigated compounds for 90 min at 37 °C. […] Subsequently, the cells were washed and immediately analyzed using flow cytometry. The FlowJo 9.6 software was used for data analyses (Tree Star Software, Ashland, CA).

K562-R cells [11] = test: Metabolic activity of K562-R cells, compounds alone (modified MTT assay); format: cell-based, human; details: 10 μM, 72 h, without imatinib; vehicle control = 100%
Protocol: as §1
First, the compounds (10 μM) were applied alone to evaluate their effects per se.
as §2

[12] = tested on: primary human CML patient samples; test: Colony forming cell (CFC) assay, primary CML patient samples; format: cell-based; details: together with 1 μM of imatinib, once at the beginning of the 14 day assay; compound 10 μM
Source text: Frozen peripheral blood mononuclear cells (PBMC) from TKI naïve CML patients and healthy controls were used for the CFC assay as described previously.[46] Briefly, thawed cells were resuspended a semisolid medium (Enriched MethocCult H4435, Stem Cell Technologies) supplemented with the respective compounds and cultured in small culture dishes for 2 weeks. Colonies were counted using an inverted microscope.

PC3-DR cells = test: Chemosensitizing to docetaxel: metabolic activity of PC3-DR cells (MTT); format: cell-based, human; details: compound 10 μM + DTX 12.5 nM, 72 h
Protocol: as §6, §2

DU145-DR cells = test: Chemosensitizing to docetaxel: metabolic activity of DU145-DR cells (MTT); format: cell-based, human; details: compound 10 μM + DTX 12.5 nM, 72 h
Protocol: as §6, §2

[13] = biological target: T1, ABCB1 transporter in K562-R cells; details: 90 min, 10 μM
Protocol: as §7

[14] = set-up: method as in PMID 23054986; details: cited from earlier work
[15] = set-up: method as in PMID 32759366; details: rat hepatocytes ref 30; cited from earlier work
ABCB1 [16] = tested on: ABCB1; set-up: method as in Weiss et al. 38; details: ref Weiss et al. 38; cited from earlier work
[17] = not told; cited from earlier work
[18] = tested on: human CML K562-R xenograft; test: Efficacy in human CML K562-R xenograft model; format: in vivo, female NOD/SCID mice; set-up: % T/C (treatment/control) / % TGI (tumor growth inhibition): concentration or dose not given beside the values; details: for % TGI (tumor growth inhibition): vs vehicle control
Protocol: The animals were checked daily for humane end points. Body weight was measured and recorded daily after dosing.
The % T/C value, defined as the ratio of the mean tumor volume for the treated versus control group, was calculated as % T/C = (Tn/Cn) × 100%; whereas Tn: denotes mean tumor volume of the treated group on day n, and Cn: denotes mean tumor volume of the control group on day n. The optimal value is the minimal % T/C ratio, which reflects the maximal tumor growth inhibition achieved.
TGI (Tumor growth inhibition) was calculated by the following formula [drawing 1] [drawing 2]
Whereas: Tn: denotes the mean tumor volume of the treated group on day n; T1: denotes the mean tumor volume of the treated group on day 1; Cn: denotes the mean tumor volume of the vehicle control group on day n; and C1: denotes the mean tumor volume of the vehicle control group at day 1.

K562-R cells [19] = test: Metabolic activity of K562-R cells, compounds alone (modified MTT assay); format: cell-based, human; details: imatinib 1 μM, 72 h; compared to the 100% solvent control
[20] = Body weight / tolerability in the K562-R xenograft study; details: 7c 10 mg/kg, imatinib 50 mg/kg, PO QD × 30 days

## CCCc1nc2ccccc2n1Cc1ccc(-c2ccc(C(N)=O)cc2)cc1 [6c, 4′-((2-Propyl-1H-benzo[d]imidazole-1-yl)methyl)-[1,1′-biphenyl]-4-carboxamide]
K562-R cells [1]; K562-R, + imatinib 1 μM, read-out: SC50 (drug concentration eliciting 50% of the maximum sensitizing effect)
  EC50: 1490 nM
K562-R cells [1]; compound 10 μM + imatinib 1 μM
  metabolic activity of K562-R cells, combination with imatinib: 8–24%
ABCB1 [2]
  ABCB1 protein expression: none of the compounds abrogated the ABCB1 protein expression
STAT5 [3]
  phosphorylation of STAT5: marked repression of the STAT5 phosphorylation
[4]
  effect on SP phenotype: effectively targeted the SP phenotype
[5]
  effect on SP phenotype: effectively targeted the SP phenotype
PC3-DR cells (ABCB1+)
  effect on SP phenotype: effectively targeted the SP phenotype
DU145-DR cells (ABCB1+)
  effect on SP phenotype: effectively targeted the SP phenotype
MCF7 cells (ABCG2+)
  effect on SP phenotype: nearly inactive
A549 cells (ABCC1+)
  effect on SP phenotype: nearly inactive
STAT5 [6]
  phosphorylation status of STAT5: efficiently repressed the phosphorylation status of STAT5
STAT5 [7]
  STAT5 protein expression: significantly suppressed STAT5
STAT5 [7]; IGROV-1 SP
  phosphorylation status of STAT5: efficiently repressed the phosphorylation status of STAT5
STAT5 [8]
  phosphorylation status of STAT5: efficiently repressed the phosphorylation status of STAT5
STAT5 [9]
  phosphorylation status of STAT5: efficiently repressed the phosphorylation status of STAT5
A2780 V SP cells
  chemosensitizing to PTX therapy: particularly sensitized
IGROV-1 SP cells
  viability / antimetabolic effect in combination with PTX: increased the antimetabolic effect of PTX
[10]
  effect on SP phenotype / ABCB1 activity: efficiently reduced the ABCB1 activity
  relation of SP and NSP: about 50%

## CCCc1nc2c(C)cc(-c3nc4ccccc4n3C)cc2n1Cc1ccc(-c2ccccc2C(=O)O)cc1 [7a, telmisartan]
K562-R cells [11]
  metabolic activity of K562-R cells, compound alone: inactive
K562-R cells [1]; compound 8 μM + imatinib 1 μM
  metabolic activity of K562-R cells, combination with imatinib: 55%
K562-R cells [1]; compound 10 μM + imatinib 1 μM
  metabolic activity of K562-R cells, combination with imatinib: 34–58%
[12]
  number of colonies (CFC): virtually ineffective
[4]
  effect on SP phenotype: only modestly affected
[5]
  effect on SP phenotype: only modestly affected
PC3-DR cells (ABCB1+)
  effect on SP phenotype: only modestly affected
DU145-DR cells (ABCB1+)
  effect on SP phenotype: only modestly affected
MCF7 cells (ABCG2+)
  effect on SP phenotype: significantly inhibited the SP phenotype
A549 cells (ABCC1+)
  effect on SP phenotype: significantly inhibited the SP phenotype
STAT5 [7]
  STAT5 protein expression: significantly suppressed STAT5
A2780 V SP cells
  chemosensitizing to PTX therapy: least active chemosensitizer
IGROV-1 SP cells
  viability / antimetabolic effect in combination with PTX: increased the antimetabolic effect of PTX
PC3-DR cells
  chemosensitizing to DTX (antimetabolic activity): only marginally increased the antimetabolic activity of DTX
DU145-DR cells
  chemosensitizing to DTX (antimetabolic activity): did not significantly reduce the metabolic activity
[13]
  percentage of cells within SP gate: 76.0%
[14]
  reported aqueous solubility: 9.9 µg/mL
[15]
  CLint: about 23 μL/min/10^6 cells
ABCB1 [16]
  inhibition of ABCB1: impeded ABCB1
[17]
  apparent permeability coefficient (Papp): 29 10^–6 cms^–1

## Cc1ccc(NC(=O)c2ccc(CN3CCN(C)CC3)cc2)cc1Nc1nccc(-c2cccnc2)n1 [Imatinib, imatinib, reference compound]
[18]; Day 5
  % TGI (tumor growth inhibition): 76%
[18]; Day 8
  % TGI (tumor growth inhibition): 54%
[18]; Day 12
  % TGI (tumor growth inhibition): 50%
[18]; Day 15
  % TGI (tumor growth inhibition): 66%
[18]; Day 19
  % TGI (tumor growth inhibition): 57%
[18]; Day 22
  % TGI (tumor growth inhibition): 57%
[18]; Day 26
  % TGI (tumor growth inhibition): 56%
[18]; Day 29
  % TGI (tumor growth inhibition): 55%
[18]; Day 33
  % TGI (tumor growth inhibition): 59%
[18]; harvested on day 33, animals No. 1–7
  Tumor Weight, individual animal: 4.442 g and 0.194 g and 0.080 g and 0.082 g and 0.351 g and 3.076 g and 0.081 g
[18]; harvested on day 33, n = 7
  Tumor Weight, group mean: 1.200 g
K562-R cells [19]
  metabolic activity of K562-R cells, imatinib alone: 73%
[20]
  tolerability: well tolerated
